{"source": "patent US20080058703A1", "about": "“Drug electrotransport with hydration measurement of hydratable reservoir” (priority 2006, published 2008)", "experiment": "In vitro skin flux of apomorphine by electrotransport from hydrated TECOGEL matrix (horizontal diffusion cell)", "type": "in vitro ADME", "conditions": "in vitro electrotransport from hydrated TECOGEL matrix across heat separated human epidermis", "text": "The diamond symbols show the average data points at particular time intervals and the vertical lines show the standard deviation. Measurement of impedance during hydration of TECOGEL® is reported in FIG. 8 and described in Example 3 below. The flux of apomorphine free base is plotted as a function of electrotransport time (in hrs). The unit for the flux is μg/cm^2 hr. […] It is noted that the TECOGEL® was used to illustrate that hydration can be done and the level of hydration measured. The exact type of polyurethane gel used is not critical as long a gel can be formed that can allow drug ions to migrate under an electrical potential.\nThe following methodology was used for the in vitro flux experiments for illustrative purposes:\nCustom-built horizontal diffusion cells made in-house from DELRIN® polymeric material were used for the in vitro skin flux experiments and heat separated human epidermis was used. A consumable Ag electrode with the same polarity as the drug was adhered to one end of a DELRIN® material diffusion cell that functioned as the donor cell. […]\nA Hanson Research MICROETTE™ collection system, interfaced to the experimental set up, collected the drug containing receptor solution from the reservoir underneath the skin directly into HPLC vials. […] The Hanson system collected samples to be analyzed by an HPLC to determine delivery efficiency of the drug in the formulation. […]", "data": [{"compound": "CN1CCc2cccc3c2[C@H]1Cc1ccc(O)c(O)c1-3", "note": "[apomorphine]", "values": [{"measurement": "rise to steady state time", "result": "about 3 hours"}, {"measurement": "steady state flux of apomorphine free base", "setting": "37° C., until about 24 hours", "result": "about 32 μg/cm^2 hr"}]}]}
